For experiment [1], the target named is T1, Src (p60^c-src, partially purified) (Homo sapiens, UniProt P12931).
T1 construct: purchased Upstate (UBI)
As to the kind of experiment: SRC-Inhibitor-Assay (time-resolved fluorescence), Src enzyme. The class given is biochemical. The settings on record: ATP 5 μM, peptide 10 μM, enzyme 2.5 U/ml, pre-incubation 15 min at 15° C.

In the next experiment the target is T2, Lck (p56^lck, active) (Homo sapiens, UniProt P06239).
T2 construct: purchased Upstate (UBI)
Description: SRC-Inhibitor-Assay (time-resolved fluorescence), Lck enzyme. Type of experiment: biochemical. The settings on record: ATP 5 μM, peptide 10 μM, enzyme 2.5 U/ml, pre-incubation 15 min at 15° C.

We go through 12 compounds from patent US7163941B2, “Pyrido[2,3-d]pyrimidin-7-carboxylic acid derivatives, their manufacture and use as pharmaceutical agents” (Hoffmann-La Roche Inc., priority 2003, dated 2007).

Molecules are shown by their SMILES.

T2 sequence (P06239 whole entry, species assumed): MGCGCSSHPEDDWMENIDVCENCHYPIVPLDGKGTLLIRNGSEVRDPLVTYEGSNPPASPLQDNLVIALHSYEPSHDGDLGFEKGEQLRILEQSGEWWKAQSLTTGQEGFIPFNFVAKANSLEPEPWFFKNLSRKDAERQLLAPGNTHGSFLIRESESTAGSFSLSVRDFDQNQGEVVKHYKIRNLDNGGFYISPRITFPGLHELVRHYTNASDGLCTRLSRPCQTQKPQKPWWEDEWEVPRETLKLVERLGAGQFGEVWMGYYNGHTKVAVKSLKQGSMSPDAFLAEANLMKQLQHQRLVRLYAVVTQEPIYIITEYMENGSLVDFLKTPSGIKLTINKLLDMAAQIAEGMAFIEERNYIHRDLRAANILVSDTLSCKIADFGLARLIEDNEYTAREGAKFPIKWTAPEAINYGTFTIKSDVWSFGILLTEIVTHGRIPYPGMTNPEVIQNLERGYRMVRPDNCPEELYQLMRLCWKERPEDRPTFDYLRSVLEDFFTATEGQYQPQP
T1 sequence (P12931 whole entry, species assumed): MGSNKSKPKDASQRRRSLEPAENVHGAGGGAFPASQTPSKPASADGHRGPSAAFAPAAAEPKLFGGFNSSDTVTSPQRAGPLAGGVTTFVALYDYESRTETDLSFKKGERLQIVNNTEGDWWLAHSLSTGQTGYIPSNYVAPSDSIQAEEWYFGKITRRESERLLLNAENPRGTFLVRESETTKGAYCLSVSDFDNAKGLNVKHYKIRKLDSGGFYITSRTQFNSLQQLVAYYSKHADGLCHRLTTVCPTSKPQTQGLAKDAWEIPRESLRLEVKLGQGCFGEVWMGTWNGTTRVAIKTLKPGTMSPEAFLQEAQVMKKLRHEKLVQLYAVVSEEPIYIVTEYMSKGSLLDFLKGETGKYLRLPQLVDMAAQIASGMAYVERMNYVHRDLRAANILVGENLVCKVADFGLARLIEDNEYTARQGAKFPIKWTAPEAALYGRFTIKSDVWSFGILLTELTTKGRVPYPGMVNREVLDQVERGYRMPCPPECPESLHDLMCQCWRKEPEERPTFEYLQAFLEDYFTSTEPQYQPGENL

On to `N#Cc1nc2nc(Nc3cccc(S(=O)(=O)CCO)c3)ncc2cc1-c1ccccc1Br` [Example 4-6, 6-(2-Bromo-phenyl)-2-[3-(2-hydroxy-ethanesulfonyl)-phenylamino]-pyrido[2,3-d]pyrimidine-7-carbonitrile], for which the IC50 in experiment [1] was found to be 16.2 nM; against Lck (p56^lck, active), 99.7 nM.
Take `O=C(NCCO)c1nc2nc(Nc3cccc(CO)c3)ncc2cc1-c1ccccc1Br` [Example 7-4, 6-(2-bromo-phenyl)-2-(3-hydroxymethyl-phenylamino)-pyrido[2,3-d]pyrimidine-7-carboxylic acid (2-hydroxy-ethyl)-amide]: the IC50 in experiment [1] came out at 30.9 nM; against Lck (p56^lck, active), 99.1 nM.
The like results for `NS(=O)(=O)CCNC(=O)c1nc2nc(Nc3ccc4c(c3)S(=O)(=O)CCO4)ncc2cc1-c1ccccc1Br` [Example 7-13, 6-(2-bromo-phenyl)-2-(4,4-dioxo-3,4-dihydro-2H-4lambda*6*-benzo[1,4]oxathiin-6-ylamino)-pyrido[2,3-d]pyrimidine-7-carboxylic acid (2-sulfamoyl-ethyl)-amide] were, in that order, 11.3 nM and 232 nM.
Regarding `CS(=O)(=O)NCCNC(=O)c1nc2nc(Nc3ccc(N4CCOCC4)cc3)ncc2cc1-c1ccccc1Br` [Example 7-15, 6-(2-bromo-phenyl)-2-(4-morpholin-4-yl-phenylamino)-pyrido[2,3-d]pyrimidine-7-carboxylic acid (2-methanesulfonylamino-ethyl)-amide], the half-inhibitory concentration (IC50) came to 0.4 nM in experiment [1] and 11.4 nM against Lck (p56^lck, active).
With `CS(=O)(=O)NCCNC(=O)c1nc2nc(Nc3cccc(NS(C)(=O)=O)c3)ncc2cc1-c1ccccc1Br` [Example 7-17, 6-(2-bromo-phenyl)-2-(3-methanesulfonylamino-phenylamino)-pyrido[2,3-d]pyrimidine-7-carboxylic acid (2-methanesulfonylamino-ethyl)-amide], the IC50 stood at 3.5 nM in experiment [1] and 11.8 nM against Lck (p56^lck, active).
The like results for `CS(=O)(=O)NCCNC(=O)c1nc2nc(Nc3ccc(OCCO)cc3)ncc2cc1-c1ccccc1Br` [Example 7-18, 6-(2-bromo-phenyl)-2-[4-(2-hydroxy-ethoxy)-phenylamino]-pyrido[2,3-d]pyrimidine-7-carboxylic acid (2-methanesulfonylamino-ethyl)-amide] were, in that order, 8.8 nM and 18.8 nM.
In the case of `CN1CCN(c2ccc(Nc3ncc4cc(-c5ccccc5Br)c(C(=O)NCCNS(C)(=O)=O)nc4n3)cc2)CC1` [Example 7-19, 6-(2-bromo-phenyl)-2-[4-(4-methyl-piperazin-1-yl)-phenylamino]-pyrido[2,3-d]pyrimidine-7-carboxylic acid (2-methanesulfonylamino-ethyl)-amide], the IC50 in experiment [1] worked out at 1 nM; against Lck (p56^lck, active), 2.1 nM.
For the compound `COc1cccc(Nc2ncc3cc(-c4ccccc4Br)c(C(=O)NCCNS(C)(=O)=O)nc3n2)c1` [Example 7-20, 6-(2-bromo-phenyl)-2-(3-methoxy-phenylamino)-pyrido[2,3-d]pyrimidine-7-carboxylic acid (2-methanesulfonylamino-ethyl)-amide], the IC50 was found to be 6.1 nM in experiment [1] and 11.1 nM at Lck (p56^lck, active).
Take `CC(=O)Nc1cccc(Nc2ncc3cc(-c4ccccc4Br)c(C(=O)NCCNS(C)(=O)=O)nc3n2)c1` [Example 7-21, 2-(3-acetylamino-phenylamino)-6-(2-bromo-phenyl)-pyrido[2,3-d]pyrimidine-7-carboxylic acid (2-methanesulfonylamino-ethyl)-amide]: the IC50 in experiment [1] was 1.8 nM; against Lck (p56^lck, active), 12 nM.
With `CS(=O)(=O)NCCNC(=O)c1nc2nc(Nc3ccc4c(c3)S(=O)(=O)CCO4)ncc2cc1-c1ccccc1Br` [Example 7-22, 6-(2-bromo-phenyl)-2-(4,4-dioxo-3,4-dihydro-2H-4lambda*6*-benzo[1,4]oxathiin-6-ylamino)-pyrido[2,3-d]pyrimidine-7-carboxylic acid (2-methanesulfonylamino-ethyl)-amide], the IC50 came out at 5 nM in experiment [1] and 37 nM against Lck (p56^lck, active).
Taken in the same sequence, the figures for `CS(=O)(=O)NCCNC(=O)c1nc2nc(Nc3cccc(SCCO)c3)ncc2cc1-c1ccccc1Br` [Example 7-23, 6-(2-bromo-phenyl)-2-[3-(2-hydroxy-ethylsulfanyl)-phenylamino]-pyrido[2,3-d]pyrimidine-7-carboxylic acid (2-methanesulfonylamino-ethyl)-amide] were 1 nM and 6.1 nM.
Taken in the same sequence, the figures for `CS(=O)(=O)NCCNC(=O)c1nc2nc(Nc3ccc4c(c3)OC(CO)CO4)ncc2cc1-c1ccccc1Br` (stereo not drawn) [Example 7-24, 6-(2-bromo-phenyl)-2-(3-hydroxymethyl-2,3-dihydro-benzo[1,4]dioxin-6-ylamino)-pyrido[2,3-d]pyrimidine-7-carboxylic acid (2-methanesulfonylamino-ethyl)-amide] were 4 nM and 9 nM.
